Here are results for 14 compounds from US4546176A, “7-Carboxymethoxyphenylacetamido-3-cephem derivatives and antibacterial preparations containing the same” (Eisai Co., Ltd., priority 1982, dated 1985).

Converted amounts (≈) assume the structure as drawn.

Format in all cases: cell-based
The subject of one assay is Staph. aureus 209-P. Description: Antibacterial activities (MIC), Staph. aureus 209-P. The following applies: Staphylococcus aureus. The text has this:
(§1) (1) Antibacterial activities (MIC):

The subject of the next assay is Escher. coli NIHJ. Description: Antibacterial activities (MIC), Escher. coli NIHJ. Particulars: Escherichia coli.
Text: as §1

Another assay has as its system Kleb. pneumoniae EK-6. Kind of assay: Antibacterial activities (MIC), Kleb. pneumoniae EK-6. Particulars: Klebsiella pneumoniae, EK6.
Text: as §1

A further assay relates to Proteus morganii EP-14. Kind of assay: Antibacterial activities (MIC), Proteus morganii EP-14. Particulars: Morganella morganii, EP14.
Text: as §1

The test system of another assay is Pseud. aeruginosa EP-01. Kind of assay: Antibacterial activities (MIC), Pseud. aeruginosa EP-01. The following applies: Pseudomonas aeruginosa, EP01.
Text: as §1

In another assay the test system is Ser. marcescens ES-75. Description: Antibacterial activities (MIC), Ser. marcescens ES-75. Particulars: Serratia marcescens, ES75.
Text: as §1

For orientation: MIC means the lowest concentration that inhibits growth of the organism. A higher MIC goes with a less susceptible organism. Take `CC(=O)OCC1=C(C(=O)O)N2C(=O)[C@@H](NC(=O)[C@H](NC(=O)c3coc4cc(O)c(O)cc4c3=O)c3ccc(OCC(=O)O)cc3)[C@H]2SC1` [Example 1, 7β-[D-2-(4-Carboxymethoxyphenyl)-2-(6,7-dihydroxy-4-oxo-4H-1-benzopyran-3-carboxamido)-acetamido]-3-acetoxymethyl-3-cephem-4-carboxylic acid]: the MIC against Staph. aureus 209-P was 25 µg/mL (≈ 36.6 µM); against Escher. coli NIHJ, 0.2 µg/mL (≈ 0.293 µM); against Kleb. pneumoniae EK-6 it was at most 0.05 µg/mL; against Proteus morganii EP-14, 6.25 µg/mL (≈ 9.14 µM); against Pseud. aeruginosa EP-01, at most 0.05 µg/mL; against Ser. marcescens ES-75, 0.2 µg/mL (≈ 0.293 µM).
Turning to `Cc1nnc(SCC2=C(C(=O)O)N3C(=O)[C@@H](NC(=O)[C@H](NC(=O)c4coc5cc(O)c(O)cc5c4=O)c4ccc(OCC(=O)O)cc4)[C@H]3SC2)s1` [Example 6, Disodium 7β-[D-2-(4-carboxymethoxyphenyl)-2-(6,7-dihydroxy-4-oxo-4H-1-benzopyran-3-carboxamido)-acetamido]-3-[5-methyl-2-(1,3,4-thiadiazolyl)]-thiomethyl-3-cephem-4-carboxylate], the MIC against Staph. aureus 209-P is 3.13 µg/mL; against Escher. coli NIHJ, 0.8 µg/mL; against Kleb. pneumoniae EK-6 it was at most 0.05 µg/mL; with Proteus morganii EP-14, 1.56 µg/mL; in the assay with Pseud. aeruginosa EP-01, at most 0.05 µg/mL; in the assay on Ser. marcescens ES-75, 0.2 µg/mL.
As to `Cn1nnnc1SCC1=C(C(=O)O)N2C(=O)[C@@H](NC(=O)[C@H](NC(=O)c3coc4c(O)c(O)ccc4c3=O)c3ccc(OCC(=O)O)cc3)[C@H]2SC1` [Example 9, 7β-[D-2-(4-Carboxymethoxyphenyl)-2-(7,8-dihydroxy-4-oxo-4H-1-benzopyran-3-carboxamido)acetamido]-3-(1-methyl-5-tetrazolyl)thiomethyl-3-cephem-4-carboxylic acid], the MIC in the assay on Staph. aureus 209-P is 25 µg/mL (≈ 33.8 µM); in the assay with Escher. coli NIHJ, 0.4 µg/mL (≈ 0.541 µM); in the assay on Kleb. pneumoniae EK-6 it was at most 0.05 µg/mL; in the assay with Proteus morganii EP-14 it was 1.56 µg/mL (≈ 2.11 µM); in the assay with Pseud. aeruginosa EP-01 it was at most 0.05 µg/mL; with Ser. marcescens ES-75 it was 0.2 µg/mL (≈ 0.27 µM).
As to `Cn1nnnc1SCC1=C(C(=O)O)N2C(=O)[C@@H](NC(=O)[C@H](NC(=O)c3cc4ccc(O)c(O)c4oc3=O)c3ccc(OCC(=O)O)cc3)[C@H]2SC1` [Example 10, 7β-[D-2-(4-Carboxymethoxyphenyl)-2-(7,8-dihydroxyphenyl)-2-(7,8-dihydroxy-2-oxo-2H-1-benzopyran-3-carboxamido)acetamido]-3-(1-methyl-5-tetrazolyl)-thiomethyl-3-cephem-4-carboxylic acid], the MIC is 12.5 µg/mL (≈ 16.9 µM) in the assay with Staph. aureus 209-P; 0.4 µg/mL (≈ 0.541 µM) with Escher. coli NIHJ; at most 0.05 µg/mL in the assay on Kleb. pneumoniae EK-6; 3.13 µg/mL (≈ 4.23 µM) in the assay with Proteus morganii EP-14; at most 0.05 µg/mL against Pseud. aeruginosa EP-01; 0.1 µg/mL (≈ 0.135 µM) in the assay with Ser. marcescens ES-75.
With `CCn1cc(C(=O)N[C@@H](C(=O)N[C@@H]2C(=O)N3C(C(=O)O)=C(CSc4nnnn4C)CS[C@H]23)c2ccc(OCC(=O)O)cc2)c(=O)c2cc(O)c(O)cc21` [Example 12, 7β-[D-2-(4-Carboxymethoxyphenyl)-2-(6,7-dihydroxy-1,4-dihydro-1-ethyl-4-oxoquinolin-3-carboxamido)-acetamido]-3-(1-methyl-5-tetrazolyl)thiomethyl-3-cephem-4-carboxylic acid], the MIC against Staph. aureus 209-P is 50 µg/mL (≈ 65.2 µM); against Escher. coli NIHJ, 0.4 µg/mL (≈ 0.522 µM); in the assay with Kleb. pneumoniae EK-6 it was at most 0.05 µg/mL; in the assay with Proteus morganii EP-14, 1.56 µg/mL (≈ 2.03 µM); with Pseud. aeruginosa EP-01, 0.1 µg/mL (≈ 0.13 µM); in the assay on Ser. marcescens ES-75, at most 0.05 µg/mL.
With `CN(C)CCn1nnnc1SCC1=C(C(=O)O)N2C(=O)[C@@H](NC(=O)[C@H](NC(=O)c3coc4cc(O)c(O)cc4c3=O)c3ccc(OCC(=O)O)cc3)[C@H]2SC1` [Example 14, Disodium 7β-[D-2-(4-carboxymethoxyphenyl)-2-(6,7-dihydroxy-4-oxo-4H-1-benzopyran-3-carboxamido)-acetamido]-3-[1-(2-N,N-dimethylaminoethyl)-5-tetrazolyl]-thiomethyl-3-cephem-4-carboxylate], the MIC with Staph. aureus 209-P is 25 µg/mL; against Escher. coli NIHJ it was 0.4 µg/mL; against Kleb. pneumoniae EK-6 it was at most 0.05 µg/mL; in the assay with Proteus morganii EP-14 it was 3.13 µg/mL; in the assay on Pseud. aeruginosa EP-01, 0.1 µg/mL; with Ser. marcescens ES-75, 0.2 µg/mL.
With `CC(=O)Oc1ccc2c(=O)c(C(=O)N[C@@H](C(=O)N[C@@H]3C(=O)N4C(C(=O)O)=C(CSc5nnnn5CC(=O)O)CS[C@H]34)c3ccc(OCC(=O)O)cc3)coc2c1OC(C)=O` [Example 16, 7β-[D-2-(4-carboxymethoxyphenyl)-2-(7,8-diacetoxy-4-oxo-4H-1-benzopyran-3-carboxamido)acetamido]-3-(1-carboxymethyl-5-tetrazolyl)thiomethyl-3-cephem-4-carboxylic acid], the MIC in the assay on Staph. aureus 209-P is 100 µg/mL (≈ 115 µM); against Escher. coli NIHJ, 0.8 µg/mL (≈ 0.922 µM); against Kleb. pneumoniae EK-6, 0.2 µg/mL (≈ 0.23 µM); in the assay with Proteus morganii EP-14, 6.25 µg/mL (≈ 7.2 µM); against Pseud. aeruginosa EP-01, 0.8 µg/mL (≈ 0.922 µM); with Ser. marcescens ES-75, 0.8 µg/mL (≈ 0.922 µM).
For `CC(=O)OCC1=C(C(=O)O)N2C(=O)[C@@H](NC(=O)[C@H](NC(=O)c3coc4c(OC(C)=O)c(OC(C)=O)ccc4c3=O)c3ccc(OCC(=O)O)cc3)[C@H]2SC1` [Example 17, 7β-[D-2-(4-Carboxymethoxyphenyl)-2-(7,8-diacetoxy-4-oxo-4H-1-benzopyran-3-carboxamido)acetamido]-3-acetoxymethyl-3-cephem-4-carboxylic acid], the MIC was 50 µg/mL (≈ 65.1 µM) in the assay on Staph. aureus 209-P; 0.8 µg/mL (≈ 1.04 µM) in the assay on Escher. coli NIHJ; at most 0.05 µg/mL in the assay on Kleb. pneumoniae EK-6; 12.5 µg/mL (≈ 16.3 µM) against Proteus morganii EP-14; 0.8 µg/mL (≈ 1.04 µM) in the assay on Pseud. aeruginosa EP-01; 1.56 µg/mL (≈ 2.03 µM) against Ser. marcescens ES-75.
Regarding `CC(=O)Oc1cc2oc(C)c(C(=O)N[C@@H](C(=O)N[C@@H]3C(=O)N4C(C(=O)O)=C(CSc5nnnn5CC(=O)O)CS[C@H]34)c3ccc(OCC(=O)O)cc3)c(=O)c2cc1OC(C)=O` [Example 22, 7β-[D-2-(4-Carboxymethoxyphenyl)-2-(6,7-diacetoxy-2-methyl-4-oxo-4H-1-benzopyran-3-carboxamido)-acetamido]-3-(1-carboxymethyl-5-tetrazolyl)thiomethyl-3-cephem-4-carboxylic acid], the MIC was 100 µg/mL (≈ 113 µM) against Staph. aureus 209-P; 0.2 µg/mL (≈ 0.227 µM) in the assay on Escher. coli NIHJ; at most 0.05 µg/mL against Kleb. pneumoniae EK-6; 3.13 µg/mL (≈ 3.55 µM) against Proteus morganii EP-14; 0.2 µg/mL (≈ 0.227 µM) against Pseud. aeruginosa EP-01; 0.1 µg/mL (≈ 0.113 µM) with Ser. marcescens ES-75.
As for `CC(=O)Oc1ccc2c(=O)c(C(=O)N[C@@H](C(=O)N[C@@H]3C(=O)N4C(C(=O)O)=C(CSc5nnnn5CC(=O)O)CS[C@H]34)c3ccc(OCC(=O)O)cc3)c(C)oc2c1OC(C)=O` [Example 23, 7β-[D-2-(4-Carboxymethoxyphenyl)-2-(7,8-diacetoxy-2-methyl-4-oxo-4H-1-benzopyran-3-carboxamido)-acetamido]-3-(1-carboxymethyl-5-tetrazolyl)thiomethyl-3-cephem-4-carboxylic acid], the MIC in the assay on Staph. aureus 209-P is 100 µg/mL (≈ 113 µM); in the assay with Escher. coli NIHJ, 0.4 µg/mL (≈ 0.454 µM); in the assay on Kleb. pneumoniae EK-6 it was at most 0.05 µg/mL; in the assay with Proteus morganii EP-14, 6.25 µg/mL (≈ 7.09 µM); against Pseud. aeruginosa EP-01, 0.8 µg/mL (≈ 0.907 µM); in the assay with Ser. marcescens ES-75, 0.8 µg/mL (≈ 0.907 µM).
Regarding `CC(=O)OCC1=C(C(=O)O)N2C(=O)[C@@H](NC(=O)[C@H](NC(=O)c3c(C)oc4cc(O)c(O)cc4c3=O)c3ccc(OCC(=O)O)cc3)[C@H]2SC1` [Example 29, Disodium 7β-[D-2-(4-carboxymethoxyphenyl)-2-(6,7-dihydroxy-2-methyl-4-oxo-4H-1-benzopyran-3-carboxamido)acetamido]-3-acetoxymethyl-3-cephem-4-carboxylate], the MIC against Staph. aureus 209-P is 50 µg/mL; against Escher. coli NIHJ it was 0.4 µg/mL; in the assay with Kleb. pneumoniae EK-6, at most 0.05 µg/mL; against Proteus morganii EP-14, 12.5 µg/mL; with Pseud. aeruginosa EP-01, 0.2 µg/mL; in the assay with Ser. marcescens ES-75, 0.4 µg/mL.
Take `CCn1cc(C(=O)N[C@@H](C(=O)N[C@@H]2C(=O)N3C(C(=O)O)=C(COC(C)=O)CS[C@H]23)c2ccc(OCC(=O)O)cc2)c(=O)c2cc(O)c(O)cc21` [Example 35, Disodium 7β-[D-2-(4-carboxymethoxyphenyl)-2-(6,7-dihydroxy-1-ethyl-1,4-dihydro-4-oxoquinoline-3-carboxamido)acetamido]-3-acetoxymethyl-3-cephem-4-carboxylate]: the MIC with Staph. aureus 209-P is 50 µg/mL; in the assay on Escher. coli NIHJ, 0.8 µg/mL; in the assay with Kleb. pneumoniae EK-6 it was at most 0.05 µg/mL; with Proteus morganii EP-14, 12.5 µg/mL; against Pseud. aeruginosa EP-01, 0.2 µg/mL; against Ser. marcescens ES-75, 1.56 µg/mL.
In the case of `CCOC(=O)Oc1cc2oc(C)c(C(=O)N[C@@H](C(=O)N[C@@H]3C(=O)N4C(C(=O)O)=C(COC(C)=O)CS[C@H]34)c3ccc(OCC(=O)O)cc3)c(=O)c2cc1OC(=O)OCC` [Example 36], the MIC against Staph. aureus 209-P was 25 µg/mL (≈ 29.7 µM); against Escher. coli NIHJ it was 0.8 µg/mL (≈ 0.95 µM); against Kleb. pneumoniae EK-6, at most 0.05 µg/mL; with Proteus morganii EP-14, 12.5 µg/mL (≈ 14.8 µM); in the assay on Pseud. aeruginosa EP-01, 0.1 µg/mL (≈ 0.119 µM); in the assay with Ser. marcescens ES-75 it was 0.8 µg/mL (≈ 0.95 µM).
For the compound `CC(=O)Oc1cc2oc(C)c(C(=O)N[C@@H](C(=O)N[C@@H]3C(=O)N4C(C(=O)[O-])=C(C[n+]5ccc(C(N)=O)cc5)CS[C@H]34)c3ccc(OCC(=O)O)cc3)c(=O)c2cc1OC(C)=O` [Example 56, 7β-[D-2-(4-Carboxymethoxyphenyl)-2-(6,7-diacetoxy-2-methyl-4-oxo-4H-1-benzopyran-3-carboxamido)acetamido]-3-(4-carbamoylpyridinium)methyl-3-cephem-4-carboxylate], the MIC in the assay on Staph. aureus 209-P was 25 µg/mL (≈ 29.6 µM); against Escher. coli NIHJ, 0.8 µg/mL (≈ 0.948 µM); against Kleb. pneumoniae EK-6, at most 0.05 µg/mL; against Proteus morganii EP-14, 6.25 µg/mL (≈ 7.41 µM); in the assay on Pseud. aeruginosa EP-01 it was 0.2 µg/mL (≈ 0.237 µM); with Ser. marcescens ES-75 it was 0.8 µg/mL (≈ 0.948 µM).
